Source: patent publication US9096565B2, “Inhibitors of histone deacetylase” (MethylGene Inc., priority 2007, dated 2015)

molecular target: one or more of HDAC-4, HDAC-5, HDAC-6, HDAC-7, HDAC-8, HDAC-9, HDAC-10 and HDAC-11; test: Inhibition of histone deacetylase enzymatic activity (summary statement over isoforms); assay type: biochemical; details: Table 3, selected examples; HDAC isoform not given
Experimental: The following protocol is used to assay the compounds of the invention.
The mixture is pre-incubated for 5 minutes at room temperature. The reaction is started by bringing the temperature to 37° C. and adding 15 μL substrate. Total reaction volume is 50 μL.
A 30 mM stock of Boc-Lys(trifluoroacetyl)-AMC substrate is prepared in DMSO. […] Reaction is started by adding 18 μL Boc-Lys(trifluoroacetyl)-AMC substrate and incubating at 37° C. for 20-30 minutes. The reaction is stopped by adding 50 μL trypsin (1 mg/mL) and a known HDAC inhibitor.

Question: How did the IC50 turn out when `O=C(Nc1cccc(C(C(=O)NO)c2ccccc2)c1)c1ccc2c(c1)OCO2` (stereo not drawn) [Compound 2-76, N-(3-(2-(hydroxyamino)-2-oxo-1-phenylethyl)phenyl)benzo[d][1,3]dioxole-5-carboxamide] was run?
Answer: Its IC50 is under 1 µM.

Question: For `O=C(NO)C(c1ccccc1)c1ccc(OCC(=O)N2CCOCC2)cc1` (stereo not drawn) [Compound 2-11, N-hydroxy-2-(4-(2-morpholino-2-oxoethoxy)phenyl)-2-phenylacetamide], which IC50 is on record?
Answer: Its IC50 is under 1 µM.

Question: `CC(C)=CCOc1cccc(C(C(=O)NO)c2ccccc2)c1` (stereo not drawn) [Compound 3-5, N-hydroxy-2-(3-(3-methylbut-2-enyloxy)phenyl)-2-phenylacetamide] was tested. Which IC50 did it give?
Answer: The IC50 was under 1 µM.

Question: Which IC50 does the source give for `O=C(NO)C(c1ccccc1)c1ccc(-c2ccc(N3CCOCC3)cc2)cc1` (stereo not drawn) [Compound 5-34, N-hydroxy-2-(4′-morpholinobiphenyl-4-yl)-2-phenylacetamide] here?
Answer: The IC50 was under 1 µM.

Question: For `CC(=O)ONC(=O)C(c1ccccc1)c1ccc(N2CCOCC2)cc1` (stereo not drawn) [Compound 5-117, N-acetoxy-2-(4-morpholinophenyl)-2-phenylacetamide], which IC50 is on record?
Answer: Its IC50 is 1 to 15 µM.

Question: With `O=C(NO)C(c1ccccc1)N1CCC2(CC1)OCCO2` (stereo not drawn) [Compound 2-41, N-hydroxy-2-phenyl-2-(1,4-dioxa-8-azaspiro[4.5]decan-8-yl)acetamide] as the compound, how does the IC50 read?
Answer: The IC50 was 1 to 15 µM.

Question: `Cn1cnc(S(=O)(=O)N2CCCN(C(C(=O)NO)c3ccccc3)CC2)c1` (stereo not drawn) [Compound 2-39, N-hydroxy-2-(4-(1-methyl-1H-imidazol-4-ylsulfonyl)-1,4-diazepan-1-yl)-2-phenylacetamide] was tested. Which IC50 did it give?
Answer: Its IC50 is 1 to 15 µM.

Question: Which IC50 does the source give for `O=C(NO)C(c1ccccc1)c1ccc(N2CCN(C3CCCC3)CC2)cc1` (stereo not drawn) [Compound 5-77, 2-(4-(4-cyclopentylpiperazin-1-yl)phenyl)-N-hydroxy-2-phenylacetamide] here?
Answer: Its IC50 is under 1 µM.

Question: How did the IC50 turn out when `O=C(NO)C(c1ccccc1)c1cccc(-c2ccccc2)c1` (stereo not drawn) [Compound 5-29, 2-(biphenyl-3-yl)-N-hydroxy-2-phenylacetamide] was run?
Answer: The IC50 was under 1 µM.

Question: How did the IC50 turn out when `O=C(NO)C(c1ccccc1)c1ccc(C#Cc2cccnc2)cc1` (stereo not drawn) [Compound 5-63, N-hydroxy-2-phenyl-2-(4-(pyridin-3-ylethynyl)phenyl)acetamide] was run?
Answer: Its IC50 is under 1 µM.

Question: For `Cc1cccc(OC(C(=O)NO)c2ccccc2)c1` (stereo not drawn) [Compound 7-2, N-hydroxy-2-phenyl-2-(m-tolyloxy)acetamide], which IC50 is on record?
Answer: The IC50 was 1 to 15 µM.

Question: With `O=C(NO)C(c1ccccc1)c1nnc(Cc2c[nH]c3ccccc23)s1` (stereo not drawn) [Compound 5-3, 2-(5-((1H-indol-3-yl)methyl)-1,3,4-thiadiazol-2-yl)-N-hydroxy-2-phenylacetamide] as the compound, how does the IC50 read?
Answer: Its IC50 is under 1 µM.

Question: How did the IC50 turn out when `COc1ccc(S(=O)(=O)Nc2cccc(C(C(=O)NO)c3ccccc3)c2)cc1` (stereo not drawn) [Compound 2-91, N-hydroxy-2-(3-(4-methoxyphenylsulfonamido)phenyl)-2-phenylacetamide] was run?
Answer: The IC50 was 1 to 15 µM.

Question: `CCN(CC)c1ccc(C(C(=O)NO)c2ccc3c(c2)CCO3)cc1` (stereo not drawn) [Compound 5-82, 2-(4-(diethylamino)phenyl)-2-(2,3-dihydrobenzofuran-5-yl)-N-hydroxyacetamide] was tested. Which IC50 did it give?
Answer: Its IC50 is under 1 µM.

Question: For `O=C(NO)C(c1ccccc1)c1ccc(NCc2ccc(F)cc2)cc1` (stereo not drawn) [Compound 2-51, 2-(4-(4-fluorobenzylamino)phenyl)-N-hydroxy-2-phenylacetamide], which IC50 is on record?
Answer: Its IC50 is under 1 µM.

Question: `O=C(NO)C(c1ccccc1)c1nnc(-c2ccccc2)s1` (stereo not drawn) [Compound 5-19, N-hydroxy-2-phenyl-2-(5-phenyl-1,3,4-thiadiazol-2-yl)acetamide] was tested. Which IC50 did it give?
Answer: Its IC50 is 1 to 15 µM.

Question: `O=C(NO)C(c1ccccc1)c1nnc(-c2ccc(Br)cc2)s1` (stereo not drawn) [Compound 1-39, 2-(5-(4-bromophenyl)-1,3,4-thiadiazol-2-yl)-N-hydroxy-2-phenylacetamide] was tested. Which IC50 did it give?
Answer: The IC50 was under 1 µM.

Question: How did the IC50 turn out when `O=C(NO)C(c1ccccc1)N1CCC(c2noc3ccc(F)cc23)CC1` (stereo not drawn) [Compound 5-18, 2-(4-(5-fluorobenzo[d]isoxazol-3-yl)piperidin-1-yl)-N-hydroxy-2-phenylacetamide] was run?
Answer: Its IC50 is under 1 µM.

Question: For `CCCc1ccc(C(C(=O)NO)c2ccccc2)cc1` (stereo not drawn) [Compound 5-102, N-hydroxy-2-phenyl-2-(4-propylphenyl)acetamide], which IC50 is on record?
Answer: Its IC50 is under 1 µM.

Question: Which IC50 does the source give for `COCCN1CCN(c2ccc(C(C(=O)NO)c3ccccc3)cc2)CC1` (stereo not drawn) [Compound 5-100, N-hydroxy-2-(4-(4-(2-methoxyethyl)piperazin-1-yl)phenyl)-2-phenylacetamide] here?
Answer: Its IC50 is under 1 µM.

Question: With `O=C(NO)C(c1ccccc1)c1nnc(-c2ccc(C(F)(F)F)cc2)s1` (stereo not drawn) [Compound 5-37, N-hydroxy-2-phenyl-2-(5-(4-(trifluoromethyl)phenyl)-1,3,4-thiadiazol-2-yl)acetamide] as the compound, how does the IC50 read?
Answer: Its IC50 is under 1 µM.

Question: `O=C(NO)C(c1ccccc1)N1CCCCC1` (stereo not drawn) [Compound 1-4, N-hydroxy-2-phenyl-2-(piperidin-1-yl)acetamide] was tested. Which IC50 did it give?
Answer: The IC50 was under 1 µM.

Question: For `O=C(NO)C(c1ccc(N2CCOCC2)cc1)c1ccccc1F` (stereo not drawn) [Compound 6-17, 2-(2-fluorophenyl)-N-hydroxy-2-(4-morpholinophenyl)acetamide], which IC50 is on record?
Answer: The IC50 was under 1 µM.

Question: With `O=C(NO)C(c1ccccc1)c1ccc(NS(=O)(=O)c2ccc(Cl)cc2)cc1` (stereo not drawn) [Compound 2-92, 2-(4-(4-chlorophenylsulfonamido)phenyl)-N-hydroxy-2-phenylacetamide] as the compound, how does the IC50 read?
Answer: Its IC50 is under 1 µM.

Question: With `O=C(NO)C(Oc1ccc2c(c1)OCO2)c1ccccc1` (stereo not drawn) [Compound 7-17, 2-(benzo[d][1,3]dioxol-5-yloxy)-N-hydroxy-2-phenylacetamide] as the compound, how does the IC50 read?
Answer: The IC50 was 1 to 15 µM.

Question: Which IC50 does the source give for `CC(C)=CCOc1ccc(C(C(=O)NO)c2ccccc2)cc1` (stereo not drawn) [Compound 3-52, N-hydroxy-2-(4-(3-methylbut-2-enyloxy)phenyl)-2-phenylacetamide] here?
Answer: The IC50 was under 1 µM.

Question: `O=C(NO)C(c1ccccc1)c1ccc(OCc2ccc(F)cc2)cc1` (stereo not drawn) [Compound 2-13] was tested. Which IC50 did it give?
Answer: Its IC50 is under 1 µM.

Question: With `O=C(NO)C(c1ccc(N2CCOCC2)cc1)c1cccs1` (stereo not drawn) [Compound 5-104, N-hydroxy-2-(4-morpholinophenyl)-2-(thiophen-2-yl)acetamide] as the compound, how does the IC50 read?
Answer: Its IC50 is under 1 µM.

Question: With `O=C(NO)C(c1ccccc1)c1cccc(-c2ccccc2C(F)(F)F)c1` (stereo not drawn) [Compound 2-108, N-hydroxy-2-phenyl-2-(2′-(trifluoromethyl)biphenyl-3-yl)acetamide] as the compound, how does the IC50 read?
Answer: The IC50 was under 1 µM.

Question: With `CC(C)CCOc1ccc(C(C(=O)NO)c2ccccc2)cc1` (stereo not drawn) [Compound 3-54, N-hydroxy-2-(4-(isopentyloxy)phenyl)-2-phenylacetamide] as the compound, how does the IC50 read?
Answer: Its IC50 is 1 to 15 µM.

Question: How did the IC50 turn out when `O=C(NO)C(c1ccccc1)N1CCN(S(=O)(=O)Cc2ccccc2)CC1` (stereo not drawn) [Compound 5-87, 2-(4-(benzylsulfonyl)piperazin-1-yl)-N-hydroxy-2-phenylacetamide] was run?
Answer: Its IC50 is 1 to 15 µM.

Question: With `O=C(Nc1ccc(C(C(=O)NO)c2ccccc2)cc1)c1ccccc1` (stereo not drawn) [Compound 2-55, N-(4-(2-(hydroxyamino)-2-oxo-1-phenylethyl)phenyl)benzamide] as the compound, how does the IC50 read?
Answer: Its IC50 is under 1 µM.

Question: Which IC50 does the source give for `CCCC(=O)N1CCCN(C(C(=O)NO)c2ccccc2)CC1` (stereo not drawn) [Compound 2-22, 2-(4-butyryl-1,4-diazepan-1-yl)-N-hydroxy-2-phenylacetamide] here?
Answer: Its IC50 is 1 to 15 µM.

Question: With `O=C(NO)C(c1ccccc1)c1ccc(OCc2ccccc2F)cc1` (stereo not drawn) [Compound 3-60, 2-(4-(2-fluorobenzyloxy)phenyl)-N-hydroxy-2-phenylacetamide] as the compound, how does the IC50 read?
Answer: The IC50 was under 1 µM.

Question: With `O=C(NO)C(c1ccccc1)N1CCN(C(=O)c2ccco2)CC1` (stereo not drawn) [Compound 2-27, 2-(4-(furan-2-carbonyl)piperazin-1-yl)-N-hydroxy-2-phenylacetamide] as the compound, how does the IC50 read?
Answer: The IC50 was 1 to 15 µM.

Question: `CCN(CCN(C)C)c1ccc(C(C(=O)NO)c2ccccc2)cc1` (stereo not drawn) [Compound 6-43] was tested. Which IC50 did it give?
Answer: Its IC50 is under 1 µM.

Question: Which IC50 does the source give for `O=C(NO)C(c1ccc(F)cc1)c1ccc(F)cc1` [Compound 1-18, 2,2-bis(4-fluorophenyl)-N-hydroxyacetamide] here?
Answer: Its IC50 is under 1 µM.

Question: For `O=C(NO)C(c1ccccc1)c1cccc(OCc2ccc(F)cc2)c1` (stereo not drawn) [Compound 2-8, 2-(3-(4-fluorobenzyloxy)phenyl)-N-hydroxy-2-phenylacetamide], which IC50 is on record?
Answer: The IC50 was under 1 µM.

Question: Which IC50 does the source give for `O=C(NO)C(c1ccccc1)c1cccc(NS(=O)(=O)c2ccccc2)c1` (stereo not drawn) [Compound 2-89, N-hydroxy-2-phenyl-2-(3-(phenylsulfonamido)phenyl)acetamide] here?
Answer: Its IC50 is 1 to 15 µM.

Question: `CN(C)c1ccc(C(C(=O)NO)c2ccc(O)cc2)cc1` (stereo not drawn) [Compound 5-5, 2-(4-(dimethylamino)phenyl)-N-hydroxy-2-(4-hydroxyphenyl)acetamide] was tested. Which IC50 did it give?
Answer: Its IC50 is under 1 µM.

Question: With `O=C(NO)C(Sc1nc2cc(Cl)ccc2s1)c1ccccc1` (stereo not drawn) [Compound 5-59, 2-(5-chlorobenzo[d]thiazol-2-ylthio)-N-hydroxy-2-phenylacetamide] as the compound, how does the IC50 read?
Answer: Its IC50 is under 1 µM.

Question: How did the IC50 turn out when `Cc1cc(-c2ccc(C(C(=O)NO)c3ccccc3)cc2)ccc1F` (stereo not drawn) [Compound 5-45, 2-(4′-fluoro-3′-methylbiphenyl-4-yl)-N-hydroxy-2-phenylacetamide] was run?
Answer: Its IC50 is under 1 µM.

Question: With `Cn1cncc1C#Cc1ccc(C(C(=O)NO)c2ccccc2)cc1` (stereo not drawn) [Compound 5-79, N-hydroxy-2-(4-((1-methyl-1H-imidazol-5-yl)ethynyl)phenyl)-2-phenylacetamide] as the compound, how does the IC50 read?
Answer: The IC50 was under 1 µM.

Question: Which IC50 does the source give for `COc1ccc(C(=O)Nc2cccc(C(C(=O)NO)c3ccccc3)c2)cc1` (stereo not drawn) [Compound 2-69, N-(3-(2-(hydroxyamino)-2-oxo-1-phenylethyl)phenyl)-4-methoxybenzamide] here?
Answer: The IC50 was under 1 µM.

Question: `O=C(NO)C(c1ccccc1)c1ccc(N2Cc3ccccc3C2)cc1` (stereo not drawn) [Compound 5-107, N-hydroxy-2-(4-(isoindolin-2-yl)phenyl)-2-phenylacetamide] was tested. Which IC50 did it give?
Answer: The IC50 was under 1 µM.

Question: For `COc1cccc(CNc2cccc(C(C(=O)NO)c3ccccc3)c2)c1` (stereo not drawn) [Compound 2-85, N-hydroxy-2-(3-(3-methoxybenzylamino)phenyl)-2-phenylacetamide], which IC50 is on record?
Answer: The IC50 was under 1 µM.

Question: With `O=C(NO)C(c1ccccc1)c1cccc(OCc2cccc(C(F)(F)F)c2)c1` (stereo not drawn) [Compound 3-42, N-hydroxy-2-phenyl-2-(3-(3-(trifluoromethyl)benzyloxy)phenyl)acetamide] as the compound, how does the IC50 read?
Answer: The IC50 was under 1 µM.

Question: `O=C(NO)C(c1ccc(N2CCOCC2)cc1)c1cccc2ccccc12` (stereo not drawn) [Compound 5-122, N-hydroxy-2-(4-morpholinophenyl)-2-(naphthalen-1-yl)acetamide] was tested. Which IC50 did it give?
Answer: The IC50 was under 1 µM.
